Results on six compounds are retold here after patent US9853225B2, “Chalcogen-containing organic compound and a use thereof” (JNC CORPORATION, priority 2013, dated 2017).

Data set [1] is described as follows: Evaluation of chemical stability, UV-Vis spectra of film standing in atmospheric air. Format: physicochemical. The conditions noted are these: vacuum-deposited film 100 nanometers, one week in atmospheric air. The source says: A film having a thickness of 100 nanometers formed by performing vacuum deposition of the compound synthesized in Example 4 was allowed to stand for one week in atmospheric air. The results obtained by measuring UV-Vis spectra (device used: Jasco V-570 Spectrometer, made by JASCO Corporation) over time during the period are shown in FIG. 3. […] According to the above, the compound of the present invention is clearly found to be chemically stable too.

Data set [2] is described as follows: Evaluation of thermal stability, TG/DTA. Format: physicochemical. The conditions noted are these: heating 5° C. per minute.
A short description of data set [3]: Evaluation of thermal stability, DSC. Format: physicochemical. To be noted: heating 5° C. per minute.

Some results are limits rather than exact numbers.

`CCCCCCCCCCc1ccc2cc3oc4cc5c(cc4c3cc2c1)oc1cc2ccc(CCCCCCCCCC)cc2cc15` [Example 1, 2,10-didecyldinaphtho[2,3-d:2′,3′-d′]benzo[1,2-b:4,5-b′]difuran] had a melting point of 316 to 317 °C. The same measure, in the same setting: the result for `CCCCCCCCCCc1ccc2cc3sc4cc5c(cc4c3cc2c1)sc1cc2ccc(CCCCCCCCCC)cc2cc15` [Example 2, 2,10-didecyldinaphtho[2,3-d:2′,3′-d′]benzo[1,2-b:4,5-b′]dithiophene] reads 285 to 286 °C; that for `CCCCCCCCCCc1ccc2cc3c(cc2c1)oc1cc2c(cc13)oc1cc3cc(CCCCCCCCCC)ccc3cc12` [Example 3, 3,11-didecyldinaphtho[2,3-d:2′,3′-d′]benzo[1,2-b:4,5-b′]difuran], at least 350 °C. `CCCCCCCCCCc1ccc2cc3c(cc2c1)sc1cc2c(cc13)sc1cc3cc(CCCCCCCCCC)ccc3cc12` [Example 4, 3,11-didecyldinaphtho[2,3-d:2′,3′-d′]benzo[1,2-b:4,5-b′]dithiophene] displayed a melting point of 263 to 264 °C. For the same compound, in data set [1], the “change of UV-Vis spectrum of film” value is recorded as “no change of the spectrum was observed”. Moreover, the “5% weight reduction temperature” value in data set [2] came to 426 °C. In turn, `CCCCCCCCCCc1ccc2cc3c(cc2c1)sc1cc2cc4c(cc2cc13)sc1cc2cc(CCCCCCCCCC)ccc2cc14` [Example 7] registered a melting point of at least 300 °C. Besides, the phase transition points entry in data set [3] is reported as “no phase transition point was observed”. Further, in data set [1], the “change of UV-Vis spectrum of film” value is given as “no change of the spectrum was observed”. The “5% weight reduction temperature” value in data set [2] came to 450 °C. With `CCCCCCc1ccc2cc3c(cc2c1)sc1cc2c(cc13)sc1cc3cc(CCCCCC)ccc3cc12` [Example 5, 3,11-dihexyldinaphtho[2,3-d:2′,3′-d′]benzo[1,2-b:4,5-b′]dithiophene], the melting point was above 300 °C.
